Test results: patent US11564914B2, “Methods of treating bone loss” (THE REGENTS OF THE UNIVERSITY OF CALIFORNIA, priority 2016, dated 2023)

How the values were obtained:
[1] = metabolic stability (method not given)
sEH = molecular target: T1, sEH (Homo sapiens, UniProt P34913); experiment: testing as sEH inhibitors (method not given); assay type: biochemical
T1 sequence (P34913 1-555): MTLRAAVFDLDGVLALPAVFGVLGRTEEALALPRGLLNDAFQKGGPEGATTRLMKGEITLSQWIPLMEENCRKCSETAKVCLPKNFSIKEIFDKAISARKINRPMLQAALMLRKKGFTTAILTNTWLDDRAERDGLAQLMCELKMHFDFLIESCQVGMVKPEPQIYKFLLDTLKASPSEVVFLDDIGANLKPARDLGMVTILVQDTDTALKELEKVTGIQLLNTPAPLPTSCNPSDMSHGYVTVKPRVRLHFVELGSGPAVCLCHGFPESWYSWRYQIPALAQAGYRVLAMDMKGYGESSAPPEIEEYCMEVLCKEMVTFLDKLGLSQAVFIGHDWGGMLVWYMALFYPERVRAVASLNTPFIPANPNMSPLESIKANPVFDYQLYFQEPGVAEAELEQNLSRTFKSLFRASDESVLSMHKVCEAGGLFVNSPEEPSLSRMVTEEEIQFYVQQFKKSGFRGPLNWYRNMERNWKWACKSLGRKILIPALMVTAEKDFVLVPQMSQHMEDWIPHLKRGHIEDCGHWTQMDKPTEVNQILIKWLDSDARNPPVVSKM

[2] = blood concentration of TPPU by LC-MS; assay type: in vivo; details: mouse, whole blood; mice, 24 h after last oral administration, after 15 days at 1 mg/kg/day
Procedure: The samples were taken at 24 h after the last oral gavage treatment. […] The results are expressed as mean±SD from six mice per group.
Animals orally received 1×10^9 CFU/ml of a diluted culture of freshly grown A. actinomycetemcomitans JP2, in a volume of 100 μl PBS containing 2% carboxymethylcellulose. The solution was placed into the oral cavity with a micropipette, and the procedure was repeated at 48 and 96 h after the first inoculation. Treatment with TPPU and EETs was initiated after the third inoculation of bacteria. The inhibitor was dissolved in PEG400 and administered at 1 mg/kg/day by oral gavage. For the treatment with EETs, we attempted to apply viscous solution of mixture of EET-methyl ester regioisomers dissolved in PEG400 to the gum tissue using a fine pipette at a dose of 1 μg/kg/day. The mice received the entire EET dose. This was done immediately before the oral gavage with both groups of mice receiving TPPU or mice receiving vehicle alone. Because EETs are unstable in stomach acid we assume exposure is largely topical or buccal. All treatments continued for 15 days. […] The negative control group consisted of uninfected mice (sham-infected), the positive control group was infected and received the vehicle only. One day after the treatment period (16th day), animals were sacrificed by cardiac puncture after anesthesia with xylazine/ketamine. […]

Row | Structure (SMILES) | metabolic stability [1] | activity as inhibitor of sEH (sEH) | concentration at 24 h [2]
1 | CCCCCCCCCCCCNC(=O)NC12CC3CC(CC(C3)C1)C2 [ADU, N-Adamantyl-N′-dodecyl urea] | metabolically stable | particularly high activity | –
2 | CCC(=O)N1CCC(NC(=O)Nc2ccc(OC(F)(F)F)cc2)CC1 [TPPU, 1-trifluoromethoxyphenyl-3-(1-propionylpiperidin-4-yl) urea] | – | – | > 8000 ng/mL
